This is an account of results in PMC8708580, “Structure Revision and Protein Tyrosine Phosphatase Inhibitory Activity of Drazepinone” (Marine Drugs, 2021).

Details of data set [1]: method as in PMID 15771896. The note with it: at a concentration of 2.0 μg/μL; cited from earlier work.
On the set-up of data set [2]: method as in PMID 15771896. The note with it: at a concentration of 2.0 μg/μL; cited from earlier work. This is another data set of the same source.
For another data set, the target named is T1, CD45 (Homo sapiens, UniProt P08575).
T1 sequence (P08575 26-1306): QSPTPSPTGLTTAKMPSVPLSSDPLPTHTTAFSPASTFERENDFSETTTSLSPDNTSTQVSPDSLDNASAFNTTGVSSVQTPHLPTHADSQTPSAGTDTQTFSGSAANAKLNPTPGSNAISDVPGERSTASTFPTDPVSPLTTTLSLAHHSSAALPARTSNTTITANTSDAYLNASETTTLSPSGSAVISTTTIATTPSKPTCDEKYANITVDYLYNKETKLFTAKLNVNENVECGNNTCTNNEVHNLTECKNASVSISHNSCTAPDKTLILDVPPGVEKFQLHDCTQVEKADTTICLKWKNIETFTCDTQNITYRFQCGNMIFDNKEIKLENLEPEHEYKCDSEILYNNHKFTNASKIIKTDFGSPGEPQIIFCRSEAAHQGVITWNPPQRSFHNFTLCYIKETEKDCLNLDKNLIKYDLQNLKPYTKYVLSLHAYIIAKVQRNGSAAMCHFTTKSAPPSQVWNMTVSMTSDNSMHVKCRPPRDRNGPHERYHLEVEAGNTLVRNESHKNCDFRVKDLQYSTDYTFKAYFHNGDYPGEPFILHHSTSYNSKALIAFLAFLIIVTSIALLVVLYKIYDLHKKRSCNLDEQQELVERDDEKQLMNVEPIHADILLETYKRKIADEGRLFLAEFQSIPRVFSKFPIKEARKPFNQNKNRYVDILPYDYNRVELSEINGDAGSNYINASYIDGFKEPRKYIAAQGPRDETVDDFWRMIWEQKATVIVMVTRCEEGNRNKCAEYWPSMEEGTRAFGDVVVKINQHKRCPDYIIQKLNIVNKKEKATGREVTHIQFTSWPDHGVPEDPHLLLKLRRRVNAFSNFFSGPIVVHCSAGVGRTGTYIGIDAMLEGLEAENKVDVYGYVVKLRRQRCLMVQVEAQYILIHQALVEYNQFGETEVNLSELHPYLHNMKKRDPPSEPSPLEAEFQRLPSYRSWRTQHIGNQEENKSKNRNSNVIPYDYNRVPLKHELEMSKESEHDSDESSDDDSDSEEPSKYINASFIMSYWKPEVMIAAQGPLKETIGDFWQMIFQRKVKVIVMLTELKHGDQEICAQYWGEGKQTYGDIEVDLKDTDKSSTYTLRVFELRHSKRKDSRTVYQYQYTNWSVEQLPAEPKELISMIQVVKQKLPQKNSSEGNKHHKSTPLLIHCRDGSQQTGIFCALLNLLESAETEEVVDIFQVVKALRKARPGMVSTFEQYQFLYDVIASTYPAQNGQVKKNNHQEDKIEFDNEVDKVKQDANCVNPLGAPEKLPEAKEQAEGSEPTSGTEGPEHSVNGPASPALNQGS
As to the kind of experiment: PTP inhibitory activity assay, CD45. It is filed as biochemical. The method, then:
(§1) Protein tyrosine phosphatases (PTPs), including PTP1B, T-cell PTP (TCPTP), Src homology-2 domain-containing PTP-1 (SHP1), and CD45 PTP (CD45), a family of enzymes that hydrolytically remove phosphate groups from proteins, have attracted much attention recently for drug discovery. […] Thus, the isolated compounds (+)-1 and (−)-1 were tested for their PTP inhibitory activity against PTP1B, TCPTP, SHP1, and CD45.
(§2) PTP inhibitory activity of (+)-1 and (−)-1 against PTP1B, TCPTP, SHP1, and CD45 was tested in the same way as that described in the literature. Na3VO4 was used as the positive control.

For the next data set, the target named is T2, TCPTP (Homo sapiens, UniProt P17706).
T2 sequence (P17706 1-415): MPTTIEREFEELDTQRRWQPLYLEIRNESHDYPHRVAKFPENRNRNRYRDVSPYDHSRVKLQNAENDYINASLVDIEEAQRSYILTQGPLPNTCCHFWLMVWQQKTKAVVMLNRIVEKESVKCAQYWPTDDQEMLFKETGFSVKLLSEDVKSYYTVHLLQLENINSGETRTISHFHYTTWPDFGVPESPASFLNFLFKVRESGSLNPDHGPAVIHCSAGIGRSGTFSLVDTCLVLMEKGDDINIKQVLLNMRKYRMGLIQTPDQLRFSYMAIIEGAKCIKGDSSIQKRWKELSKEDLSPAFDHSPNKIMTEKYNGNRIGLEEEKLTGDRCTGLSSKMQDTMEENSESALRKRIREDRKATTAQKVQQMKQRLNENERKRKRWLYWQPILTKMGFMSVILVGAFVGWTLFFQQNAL
As to the kind of experiment: PTP inhibitory activity assay, TCPTP. Particulars: in vitro; Na3VO4 positive control. It counts as biochemical. The method, then: as §1, §2

The next data set has as its target T3, PTP1B (Homo sapiens, UniProt P18031).
T3 sequence (P18031 1-435): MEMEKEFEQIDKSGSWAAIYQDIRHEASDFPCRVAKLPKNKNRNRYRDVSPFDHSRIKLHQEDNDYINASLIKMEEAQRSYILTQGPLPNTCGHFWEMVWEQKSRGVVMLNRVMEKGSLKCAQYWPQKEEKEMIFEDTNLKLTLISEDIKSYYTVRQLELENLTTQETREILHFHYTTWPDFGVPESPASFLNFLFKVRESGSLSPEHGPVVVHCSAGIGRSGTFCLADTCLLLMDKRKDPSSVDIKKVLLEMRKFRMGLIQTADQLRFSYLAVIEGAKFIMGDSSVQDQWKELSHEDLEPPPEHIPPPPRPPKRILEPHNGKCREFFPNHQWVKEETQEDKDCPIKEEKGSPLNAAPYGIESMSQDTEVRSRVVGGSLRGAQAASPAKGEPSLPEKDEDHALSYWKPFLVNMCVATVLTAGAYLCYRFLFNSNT
Kind of data set: PTP inhibitory activity assay, PTP1B. It counts as biochemical. Particulars: in vitro; Na3VO4 positive control. On the procedure: Thus, the isolated compounds (+)-1 and (−)-1 were tested for their PTP inhibitory activity against PTP1B, TCPTP, SHP1, and CD45.
PTP inhibitory activity of (+)-1 and (−)-1 against PTP1B, TCPTP, SHP1, and CD45 was tested in the same way as that described in the literature.

Where [3] appears, read: in vitro, Na3VO4 positive control.

Molecules are shown by their SMILES. pIC50: −log10 of the molar value. Like-named read-outs stand apart in the source and are kept apart here.

Turning to `CC1=CC(C)C2c3cc4ccccc4cc3OC2(C)NC1=O` (stereo not shown) [drazepinone, Drazepinone], the herbicidal properties entry in data set [1] is “broad-spectrum herbicidal properties”. For the same molecule, the zootoxic activity entry in data set [2] was “low zootoxic activity”.
Take `[Na+].[Na+].[Na+].[O]=[V]([O-])([O-])[O-]` [Na3VO4, reference compound]: at CD45 (setting [3]), the “IC50 CD45” value is 6.25 µg/mL. Also, on TCPTP, the “IC50 TCPTP” value was found to be 3.13 µg/mL.
Regarding `CC1=CC2(C)Oc3c(-c4ccccc4)c[nH]c(=O)c3C2C1C` (single isomer, unassigned; (-)) [(−)-1], the pIC50 against PTP1B was 5.27; against CD45 (setting [3]), less than 4.07; against TCPTP, 4.37.
Regarding `CC1=CC2(C)Oc3c(-c4ccccc4)c[nH]c(=O)c3C2C1C` (single isomer, unassigned; (+)) [(+)-1], on PTP1B, the pIC50 was less than 4.07 and the “IC50 PTP1B” value is “no activity”. The same molecule showed a pIC50 at CD45 of less than 4.07. Further, the “IC50 CD45” value at CD45 (setting [3]) is reported as “no activity”. Besides, on TCPTP, the pIC50 is less than 4.07 and the “IC50 TCPTP” value is on record as “no activity”.

The term pIC50 denotes the negative decadic logarithm of the IC50, by convention in mol/L. A higher pIC50 goes with a small IC50.
